Assay results reported in patent US20080249072A1, “Use of Low Dose Chemically Modified Tetracylines to Reduce Inflammatory Mediators” (priority 2005, published 2008).

Tests used:
Type in all cases: cell-based
[1] = system: Macrophage Chemotactic Protein-1 (MCP-1); assay: MCP-1 production by human monocytes/macrophages stimulated by CRP/Oxid. LDL complex (ELISA)
Procedure: (§1) Experiments were conducted to compare the efficacy of two tetracycline compounds, doxycycline and CMT-3, on reducing the production of inflammatory mediators, TNF-α, IL-6 and MCP-1 produced by monocytes/macrophages. Doxycycline is a well known tetracycline antibiotic. CMT-3 is a non-antibacterial 4-dedimethylamino derivative of sancycline. See above. The experiments utilized a cell culture stimulated by biologic factors that cause inflammation, such as the inflammation seen in, for example, coronary and cerebro-vascular disease. Units of human blood were obtained and peripheral blood monocytes were separated by Ficoll-Hypaque gradient centrifugation. Viable human monocytes/macrophages were incubated in cell culture under standard sterile conditions on plastic in RPMI media at 37° C. for 18 hours. The monocytes/macrophages were incubated under the following experimental conditions: • (i) cells alone; • (ii) cells stimulated by c-reactive protein (CRP)/Oxidized LDL cholesterol complex (CRP/Oxid. LDL complex), no tetracycline present; • (iii) cells stimulated by CRP/Oxid. LDL complex with doxycycline at concentrations of 0.7 μg/ml, 5.0 μg/ml and 10.0 μg/ml; and. • (iv) cells stimulated by CRP/Oxid. LDL complex with CMT-3 at concentrations of 0.5 μg/ml, 1.5 μg/ml and 5.0 μg/ml. CRP/Oxid. LDL complex stimulates monocytes/macrophages to secrete excessive levels of cytokines (e.g. IL-1, IL-6, TNF-α, and MCP-1). Excessive levels of cytokines result in the rupture of atheroscleromatus plaques lining coronary and cerebral arteries causing thrombosis, heart attack and stroke. At the end of an 18 hour incubation, the conditioned media were collected and analyzed by ELISA for inflammatory mediators IL-6, TNF-α and MCP-1. The results are described in examples 1-3.

[2] = system: Tumor Necrosis Factor-α (TNF-α); assay: TNF-α production by human monocytes/macrophages stimulated by CRP/Oxid. LDL complex (ELISA)
Procedure: as §1

Interleukin-6 (IL-6) = assay: IL-6 production by human monocytes/macrophages stimulated by CRP/Oxid. LDL complex (ELISA)
Procedure: as §1

[3] = highest concentration, 5.0 μg/ml
[4] = all three concentrations tested (0.5, 1.5 and 5.0 μg/ml)

Compound | MCP-1 production at 1.5 μg/ml higher than at 0.5 μg/ml ([1]; 1.5 μg/ml versus 0.5 μg/ml) [%] | effectiveness in reducing MCP-1 among concentrations tested [1, 3] | TNF-α production at 1.5 μg/ml higher than at 0.5 μg/ml ([2]; 1.5 μg/ml versus 0.5 μg/ml) | effect on TNF-α production [2, 4] | effectiveness in reducing TNF-α among concentrations tested [2, 3] | IL-6 production at 1.5 μg/ml higher than at 0.5 μg/ml (Interleukin-6 (IL-6); 1.5 μg/ml versus 0.5 μg/ml) [%] | effect on IL-6 production (Interleukin-6 (IL-6); [4]) | effectiveness in reducing IL-6 among concentrations tested (Interleukin-6 (IL-6); [3]) | inhibition of MCP-1 production ([1]; 0.5 μg/ml) | inhibition of MCP-1 production ([1]; 1.5 μg/ml) | inhibition at 5 µg/mL ([1]; Homo sapiens, Macrophage, 5.0 μg/ml, read-out: inhibition of production (printed TNF-α, in MCP-1 example)) [%] | reduction of TNF-α production ([2]; 10.0 μg/ml, 18 hour incubation) | inhibition at 0.7 µg/mL ([2]; Homo sapiens, 0.7 μg/ml, 18 hour incubation) [%] | inhibition at 5 µg/mL ([2]; Homo sapiens, 5.0 μg/ml, 18 hour incubation) [%]
NC(=O)C1=C(O)C[C@@H]2C[C@@H]3Cc4cccc(O)c4C(=O)C3=C(O)[C@]2(O)C1=O [CMT-3, 6-demethyl-6-deoxy-4-dedimethylaminotetracycline] | 16 | most effective | about 50% | reduced TNF-α production | most effective | 43 | reduced IL-6 production | most effective | – | – | – | – | – | –
C[C@H]1c2cccc(O)c2C(=O)C2=C(O)[C@]3(O)C(=O)C(C(N)=O)=C(O)[C@@H](N(C)C)[C@@H]3[C@@H](O)[C@@H]21 [doxycycline, reference compound] | – | – | – | – | – | – | – | – | did not inhibit | did not inhibit | ~68 | about 94% | ~14 | ~37
